Source: patent US20250243210A1, “CRBN E3 LIGASE LIGAND COMPOUND, PROTEIN DEGRADER DEVELOPED BASED THEREON AND THEIR APPLICATIONS” (GLUETACS THERAPEUTICS (SHANGHAI) CO., LTD., priority 2021, published 2025)
pIC50: −log10 of the molar value. Read-outs that look alike come from different tables or passages of the source. Blank lines part the entries; values can stand above or below the molecule they belong to.

Legend:
Kasumi-1 = assay: CCK-8 tumor cell proliferation, Kasumi-1; assay type: cell-based; conditions: Homo sapiens, Kasumi-1, 72 h, read-out: IC50 for inhibiting the proliferation of tumor cells, Kasumi-1
Experimental: (§1) Determination of half inhibitory concentration (IC50) of the compounds against tumor cells:
(§2) The tumor cells used herein were cultured in a cell culture medium listed in table 6 at 37° C. in an incubator with 5% CO2.
(§3) After the cells were treated with the compounds of the present disclosure for a period of time (the treatment times listed in Table 7), the cell viability detection reagent was added to the culture medium for cell viability assessment according to the instructions provided with the CCK-8 kit. […] The growth inhibition of the compounds of the present disclosure on cells was plotted by Prism Graphpad software, and the IC50 values of the compounds of the present disclosure were calculated therefrom.

SU-DHL-6 = assay: CCK-8 tumor cell proliferation, SU-DHL-6; assay type: cell-based; conditions: Homo sapiens, SU-DHL-6, 72 h, read-out: IC50 for inhibiting the proliferation of tumor cells, SU-DHL-6
Experimental: as §1, §2, §3

LNcap = assay: CCK-8 tumor cell proliferation, LNcap; assay type: cell-based, Human; conditions: 96 h, read-out: IC50 for inhibiting the proliferation of tumor cells, LNcap
Experimental: as §1
(§4) The tumor cells used herein were cultured in a cell culture medium listed in table 6 at 37° C. in an incubator with 5% CO2. Prior to experimentation, all cells used were correctly identified by STR profiling, and tested negative for mycoplasma through routine screenings.
(§5) IC50 values of the compounds of the present disclosure (including the compounds in Table 4 and compounds of examples 1-72) were measured using the Meilun Cell Counting Kit-S kit from Dalian Meilun Biotech Co., Ltd. Assay details are as follows: tumor cells were seeded in a 96-well plate at a density listed in Table 7. After 24 h, 100 μL of the inoculated cells were treated with 0.5 μL of the compounds of the present disclosure (including the compounds in Table 4 and compounds of examples 1-72) at 10 different successively decreasing concentrations (starting at the highest concentration of 10 μM; 5-fold serial dilutions). After the cells were treated with the compounds of the present disclosure for a period of time (the treatment times listed in Table 7), the cell viability detection reagent was added to the culture medium for cell viability assessment according to the instructions provided with the CCK-8 kit. […] The growth inhibition of the compounds of the present disclosure on cells was plotted by Prism Graphpad software, and the IC50 values of the compounds of the present disclosure were calculated therefrom.

PC-3 = assay: CCK-8 tumor cell proliferation, PC-3; assay type: cell-based, Human; conditions: PC-3, 96 h, read-out: IC50 for inhibiting the proliferation of tumor cells, PC-3
Experimental: as §1, §2, §3

DU-145 = assay: CCK-8 tumor cell proliferation, DU-145; assay type: cell-based, Human; conditions: DU-145, 96 h, read-out: IC50 for inhibiting the proliferation of tumor cells, DU-145
Experimental: as §1, §2, §3

MM.1R = assay: CCK-8 tumor cell proliferation, MM.1R; assay type: cell-based; conditions: 72 h, read-out: IC50 for inhibiting the proliferation of tumor cells, MM.1R
Experimental: as §1, §2, §3

WSU-DLCL2 = assay: CCK-8 tumor cell proliferation, WSU-DLCL2; assay type: cell-based, Human; conditions: read-out: IC50 for inhibiting the proliferation of tumor cells, WSU-DLCL2
Experimental: as §1, §2, §3

MGC80-3 = assay: CCK-8 tumor cell proliferation, MGC80-3; assay type: cell-based, Human; conditions: read-out: IC50 for inhibiting the proliferation of tumor cells, MGC80-3
Experimental: as §1, §4, §5

SW620 = assay: CCK-8 tumor cell proliferation, SW620; assay type: cell-based, Human; conditions: SW620, 96 h, read-out: IC50 for inhibiting the proliferation of tumor cells, SW620
Experimental: as §1, §2, §3

A549 = assay: CCK-8 tumor cell proliferation, A549; assay type: cell-based, Human; conditions: A549, 96 h, read-out: IC50 for inhibiting the proliferation of tumor cells, A549
Experimental: as §1, §4, §5

Hep3B2.1-7 = assay: CCK-8 tumor cell proliferation, Hep3B2.1-7; assay type: cell-based, Human; conditions: Hep3B2.1-7, 96 h, read-out: IC50 for inhibiting the proliferation of tumor cells, Hep3B2.1-7
Experimental: as §1, §4, §5

[1] = Homo sapiens, MGC-803, MGC80-3, 96 h
[2] = Homo sapiens, WSUDLCL2, WSU-DLCL2, 96 h

Structure (SMILES): Cc1nc(Nc2ncc(C(=O)Nc3c(C)cccc3Cl)s2)cc(N2CCC(CN3CC4CC(C3)N4c3ccc4c(c3)C(=O)N(C3CCC(=O)NC3=O)C4=O)CC2)n1 (centres unmarked) [GT-03630, N-(2-chloro-6-methylphenyl)-2-((6-(4-((6-(2-(2,6-dioxopiperidin-3-yl)-1,3-dioxoisoindolin-5-yl)-3,6-diazabicyclo[3.1.1]heptan-3-yl)methyl)piperidin-1-yl)-2-methylpyrimidin-4-yl)amino)thiazole-5-carboxamide]
pIC50 (Kasumi-1): ≥ 7.30
pIC50 (SU-DHL-6): 6.30 to 7.00

pIC50 (LNcap): 6.00 to 6.30
pIC50 (PC-3): 6.00 to 6.30
pIC50 (DU-145): 6.00 to 6.30
pIC50 (MM.1R): 5.30 to 6.00
pIC50 (WSU-DLCL2; WSU-DLCL2, 96 h): 5.30 to 6.00
pIC50 (MGC80-3; MGC80-3, 96 h): 6.30 to 7.00
pIC50 (SW620; CCK-8, Table 8 (AR-based)): 7.00 to 7.30
Structure (SMILES): N#Cc1ccc(OC2CCC(NC(=O)c3ccc(N4CCC(CN5CCN(c6cc7c(cc6F)C(=O)N(C6CCC(=O)NC6=O)C7=O)CC5)CC4)nn3)CC2)cc1Cl (centres unmarked) [GT-03016, N-((1r,4r)-4-(3-chloro-4-cyanophenoxy)cyclohexyl)-6-(4-((4-(2-(2,6-dioxopiperidin-3-yl)-6-fluoro-1,3-dioxoisoindolin-5-yl)piperazin-1-yl-2,2,3,3,5,5,6,6-d8)methyl)piperidin-1-yl)pyridazine-3-carboxamide]

Structure (SMILES): CC1(C)[C@H](NC(=O)c2ccc(N3CCC(CN4CC5CCC(C4)N5c4cc5c(cc4F)C(=O)N(C4CCC(=O)NC4=O)C5=O)CC3)nn2)C(C)(C)[C@H]1Oc1ccc(C#N)c(Cl)c1 (some centres unmarked) [GT-03398, N-((1r,3r)-3-(3-chloro-4-cyanophenoxy)-2,2,4,4-tetramethylcyclobutyl)-6-(4-((8-(2-(2,6-dioxopiperidin-3-yl)-6-fluoro-1,3-dioxoisoindolin-5-yl)-3,8-diazabicyclo[3.2.1]octan-3-yl)methyl)piperidin-1-yl)pyridazine-3-carboxamide]
pIC50 (LNcap; Homo sapiens): 7.00 to 7.30
pIC50 (PC-3; Homo sapiens): ≥ 7.30
pIC50 (DU-145; Homo sapiens): 7.00 to 7.30
pIC50 (MGC80-3; [1]): ≥ 7.30
pIC50 (A549; Homo sapiens): 7.00 to 7.30

pIC50 (SW620; Homo sapiens, SW-620, CCK-8, Table 9, numeric value): < 5.00
Structure (SMILES): CN(C)C(=O)c1cc2cnc(Nc3ccc(N4CCNCC4)cn3)nc2n1C1CCCC1 [Ribociclib, reference compound]

Structure (SMILES): N#Cc1ccc(OC2CCC(NC(=O)c3ccc(N4CCC(CN5CC6CCC(C5)N6c5cc6c(cc5F)C(=O)N(C5CCC(=O)NC5=O)C6=O)CC4)nn3)CC2)cc1Cl (centres unmarked) [GT-02765, N-((1r,4r)-4-(3-chloro-4-cyanophenoxy)cyclohexyl)-6-(4-((8-(2-(2,6-dioxopiperidin-3-yl)-6-fluoro-1,3-dioxoisoindolin-5-yl)-3,8-diazabicyclo[3.2.1]octan-3-yl)methyl)piperidin-1-yl)pyridazine-3-carboxamide]
pIC50 (LNcap): ≥ 7.30
pIC50 (PC-3): ≥ 7.30
pIC50 (DU-145): 7.00 to 7.30
pIC50 (MM.1R): 6.30 to 7.00
pIC50 (WSU-DLCL2; WSU-DLCL2, 96 h): ≥ 7.30
pIC50 (MGC80-3; MGC80-3, 96 h): ≥ 7.30
pIC50 (SW620; CCK-8, Table 8 (AR-based)): ≥ 7.30
pIC50 (A549): ≥ 7.30
pIC50 (Hep3B2.1-7): ≥ 7.30

pIC50 (LNcap; Homo sapiens): 7.00 to 7.30
pIC50 (DU-145; Homo sapiens): 5.30 to 6.00
pIC50 (WSU-DLCL2; [2]): 7.00 to 7.30
pIC50 (MGC80-3; [1]): 7.00 to 7.30
pIC50 (A549; Homo sapiens): 6.30 to 7.00
pIC50 (Hep3B2.1-7; Homo sapiens): 7.00 to 7.30
Structure (SMILES): CC1(C)[C@H](NC(=O)c2ccc(N3CCC(CN4CC5CCC4CN5c4cc5c(cc4F)C(=O)N(C4CCC(=O)NC4=O)C5=O)CC3)nc2)C(C)(C)[C@H]1Oc1ccc(C#N)c(Cl)c1 (some centres unmarked) [GT-03494, N-((1r,3r)-3-(3-chloro-4-cyanophenoxy)-2,2,4,4-tetramethylcyclobutyl)-6-(4-((5-(2-(2,6-dioxopiperidin-3-yl)-6-fluoro-1,3-dioxoisoindolin-5-yl)-2,5-diazabicyclo[2.2.2]octan-2-yl)methyl)piperidin-1-yl)nicotinamide]

Structure (SMILES): Cc1nc(Nc2ncc(C(=O)Nc3c(C)cccc3Cl)s2)cc(N2CCC(CN3CC4CCC(C3)N4c3ccc4c(c3)C(=O)N(C3CCC(=O)NC3=O)C4=O)CC2)n1 (centres unmarked) [GT-03629, N-(2-chloro-6-methylphenyl)-2-((6-(4-((8-(2-(2,6-dioxopiperidin-3-yl)-1,3-dioxoisoindolin-5-yl)-3,8-diazabicyclo[3.2.1]octan-3-yl)methyl)piperidin-1-yl)-2-methylpyrimidin-4-yl)amino)thiazole-5-carboxamide]
pIC50 (Kasumi-1): 6.30 to 7.00
pIC50 (SU-DHL-6): 6.30 to 7.00

pIC50 (LNcap; Homo sapiens): 6.30 to 7.00
pIC50 (WSU-DLCL2; [2]): 6.30 to 7.00
pIC50 (MGC80-3; [1]): 6.30 to 7.00
pIC50 (A549; Homo sapiens): 6.30 to 7.00
pIC50 (Hep3B2.1-7; Homo sapiens): ≥ 7.30
Structure (SMILES): CC1(C)[C@H](NC(=O)c2ccc(N3CCC(CN4CC5CCC4CN5c4ccc5c(c4)C(=O)N(C4CCC(=O)NC4=O)C5=O)CC3)nc2)C(C)(C)[C@H]1Oc1ccc(C#N)c(Cl)c1 (some centres unmarked) [GT-03481, N-((1r,3r)-3-(3-chloro-4-cyanophenoxy)-2,2,4,4-tetramethylcyclobutyl)-6-(4-((5-(2-(2,6-dioxopiperidin-3-yl)-1,3-dioxoisoindolin-5-yl)-2,5-diazabicyclo[2.2.2]octan-2-yl)methyl)piperidin-1-yl)nicotinamide]

Structure (SMILES): CC1(C)[C@H](NC(=O)c2ccc(N3CCC(CN4CC5CCC(C4)N5c4cc5c(cc4F)C(=O)N(C4CCC(=O)NC4=O)C5=O)CC3)nc2)C(C)(C)[C@H]1Oc1ccc(C#N)c(Cl)c1 (some centres unmarked) [GT-03402, N-((1r,3r)-3-(3-chloro-4-cyanophenoxy)-2,2,4,4-tetramethylcyclobutyl)-6-(4-((8-(2-(2,6-dioxopiperidin-3-yl)-6-fluoro-1,3-dioxoisoindolin-5-yl)-3,8-diazabicyclo[3.2.1]octan-3-yl)methyl)piperidin-1-yl)nicotinamide]
pIC50 (LNcap; Homo sapiens): 7.00 to 7.30
pIC50 (PC-3; Homo sapiens): 7.00 to 7.30
pIC50 (DU-145; Homo sapiens): 7.00 to 7.30
pIC50 (WSU-DLCL2; [2]): 6.30 to 7.00
pIC50 (A549; Homo sapiens): 6.30 to 7.00

pIC50 (SW620; CCK-8, Table 8 (AR-based)): 6.30 to 7.00
Structure (SMILES): N#Cc1ccc(OC2CCC(NC(=O)c3ccc(N4CCC(CN5CC6CCC5CN6c5cc6c(cc5F)C(=O)N(C5CCC(=O)NC5=O)C6=O)CC4)nn3)CC2)cc1Cl (centres unmarked) [GT-03773, N-((1r,4r)-4-(3-chloro-4-cyanophenoxy)cyclohexyl)-6-(4-((5-(2-(2,6-dioxopiperidin-3-yl)-6-fluoro-1,3-dioxoisoindolin-5-yl)-2,5-diazabicyclo[2.2.2]octan-2-yl)methyl)piperidin-1-yl)pyridazine-3-carboxamide]

Structure (SMILES): CN(C)C(=O)c1cc2cnc(Nc3ccc(N4CCC(CN5CC6CCC(C5)N6c5ccc6c(c5)C(=O)N(C5CCC(=O)NC5=O)C6=O)CC4)cn3)nc2n1C1CCCC1 (centres unmarked) [GT-03651, 7-cyclopentyl-2-((5-(4-((8-(2-(2,6-dioxopiperidin-3-yl)-1,3-dioxoisoindolin-5-yl)-3,8-diazabicyclo[3.2.1]octan-3-yl)methyl)piperidin-1-yl)pyridin-2-yl)amino)-N,N-dimethyl-7H-pyrrolo[2,3-d]pyrimidine-6-carboxamide]
pIC50 (SW620; Homo sapiens, SW-620, CCK-8, Table 9 (CDK4/6-based)): 6.30 to 7.00

Structure (SMILES): N#Cc1ccc(OC2CCC(NC(=O)c3ccc(N4CCC(CN5CC6CCC(C5)N6c5ccc6c(c5)C(=O)N(C5CCC(=O)NC5=O)C6=O)CC4)nn3)CC2)cc1Cl (centres unmarked) [GT-03488, N-((1r,4r)-4-(3-chloro-4-cyanophenoxy)cyclohexyl)-6-(4-((8-(2-(2,6-dioxopiperidin-3-yl)-1,3-dioxoisoindolin-5-yl)-3,8-diazabicyclo[3.2.1]octan-3-yl)methyl)piperidin-1-yl)pyridazine-3-carboxamide]
pIC50 (LNcap): ≥ 7.30
pIC50 (DU-145): 7.00 to 7.30
pIC50 (MM.1R): ≥ 7.30
pIC50 (MGC80-3; MGC80-3, 96 h): ≥ 7.30
pIC50 (A549): 7.00 to 7.30
pIC50 (Hep3B2.1-7): ≥ 7.30
